# Reference: patent US4740601A, “Imidazole derivatives having antimicrobial activities” (SS Pharmaceutical Co., Ltd., priority 1985, dated 1988)
# System: Sarcina lutea ATCC 9341
# Test: antimicrobial activity, MIC
# Format: cell-based
# Conditions: Micrococcus luteus, ATCC9341, Sarcina lutea ATCC 9341; read-out: MIC
row,Compound,MIC
1,"CCCCCCOc1ccccc1C(=COC)n1ccnc1 (single isomer, unassigned) [Compound 73]",6.25 µg/mL
2,"CCCCCOc1ccccc1C(=CSCC)n1ccnc1 (single isomer, unassigned) [Compound 34]",1.56 µg/mL

# System: Pyricularia oryzae IAM 5016
# Test: microbe, parasite or virus in culture
# Format: cell-based
# Conditions: Pyricularia oryzae, IAM5016, Pyricularia oryzae IAM 5016
row,Compound,MIC
1,"CCCCCCOc1ccccc1C(=COC)n1ccnc1 (single isomer, unassigned) [Compound 73]",1.56 µg/mL
2,"CCCCCOc1ccccc1C(=CSCC)n1ccnc1 (single isomer, unassigned) [Compound 34]",< 0.2 µg/mL

# System: Cladosporium fulvum IAM 5006
# Test: antimicrobial activity, MIC
# Format: cell-based
# Conditions: Fulvia fulva, IAM5006, Cladosporium fulvum IAM 5006; read-out: MIC
row,Compound,MIC
1,"CCCCCCOc1ccccc1C(=COC)n1ccnc1 (single isomer, unassigned) [Compound 73]",6.25 µg/mL
2,"CCCCCOc1ccccc1C(=CSCC)n1ccnc1 (single isomer, unassigned) [Compound 34]",25 µg/mL

# System: Staphylococcus aureus Smith
# Test: antimicrobial activity, MIC
# Format: cell-based
# Conditions: Staphylococcus aureus, read-out: MIC
row,Compound,MIC
1,"CCCCCCOc1ccccc1C(=COC)n1ccnc1 (single isomer, unassigned) [Compound 73]",12.5 µg/mL
2,"CCCCCOc1ccccc1C(=CSCC)n1ccnc1 (single isomer, unassigned) [Compound 34]",12.5 µg/mL

# System: Fusarium moniliforme IAM 5062
# Test: antimicrobial activity, MIC
# Format: cell-based
# Conditions: Fusarium verticillioides, IAM5062, Fusarium moniliforme IAM 5062; read-out: MIC
row,Compound,MIC
1,"CCCCCCOc1ccccc1C(=COC)n1ccnc1 (single isomer, unassigned) [Compound 73]",12.5 µg/mL
2,"CCCCCOc1ccccc1C(=CSCC)n1ccnc1 (single isomer, unassigned) [Compound 34]",0.39 µg/mL

# System: Penicillium chrysogenum ATCC 6010
# Test: antimicrobial activity, MIC
# Format: cell-based
# Conditions: Penicillium chrysogenum, ATCC6010, Penicillium chrysogenum ATCC 6010; read-out: MIC
row,Compound,MIC
1,"CCCCCCOc1ccccc1C(=COC)n1ccnc1 (single isomer, unassigned) [Compound 73]",6.25 µg/mL
2,"CCCCCOc1ccccc1C(=CSCC)n1ccnc1 (single isomer, unassigned) [Compound 34]",3.12 µg/mL

# System: Staphylococcus aureus FDA 209P
# Test: antimicrobial activity, MIC
# Format: cell-based
# Conditions: Staphylococcus aureus, FDA209P, read-out: MIC
row,Compound,MIC
1,"CCCCCCOc1ccccc1C(=COC)n1ccnc1 (single isomer, unassigned) [Compound 73]",12.5 µg/mL
2,"CCCCCOc1ccccc1C(=CSCC)n1ccnc1 (single isomer, unassigned) [Compound 34]",12.5 µg/mL

# System: Helminthosporium sesamum IAM 5012
# Test: antimicrobial activity, MIC
# Format: cell-based
# Conditions: Helminthosporium, IAM5012, Helminthosporium sesamum IAM 5012; read-out: MIC
row,Compound,MIC
1,"CCCCCCOc1ccccc1C(=COC)n1ccnc1 (single isomer, unassigned) [Compound 73]",6.25 µg/mL
2,"CCCCCOc1ccccc1C(=CSCC)n1ccnc1 (single isomer, unassigned) [Compound 34]",< 0.2 µg/mL

# System: Candida albicans NHL 4019
# Test: antimicrobial activity, MIC
# Format: cell-based
# Conditions: Candida albicans, NHL4019, Candida albicans NHL 4019; read-out: MIC
row,Compound,MIC
1,"CCCCCCOc1ccccc1C(=COC)n1ccnc1 (single isomer, unassigned) [Compound 73]",50 µg/mL
2,"CCCCCOc1ccccc1C(=CSCC)n1ccnc1 (single isomer, unassigned) [Compound 34]",50 µg/mL

# System: Trichophyton tonsurans IFO 5928
# Test: antimicrobial activity, MIC
# Format: cell-based
# Conditions: Trichophyton tonsurans, IFO5928, Trichophyton tonsurans IFO 5928; read-out: MIC
row,Compound,MIC
1,"CCCCCCOc1ccccc1C(=COC)n1ccnc1 (single isomer, unassigned) [Compound 73]",3.12 µg/mL
2,"CCCCCOc1ccccc1C(=CSCC)n1ccnc1 (single isomer, unassigned) [Compound 34]",< 0.2 µg/mL

# System: Staphylococcus aureus Terajima
# Test: antimicrobial activity, MIC
# Format: cell-based
# Conditions: Staphylococcus aureus, read-out: MIC
row,Compound,MIC
1,"CCCCCCOc1ccccc1C(=COC)n1ccnc1 (single isomer, unassigned) [Compound 73]",6.25 µg/mL
2,"CCCCCOc1ccccc1C(=CSCC)n1ccnc1 (single isomer, unassigned) [Compound 34]",12.5 µg/mL

# System: Microsporum gypseum IFO 8231
# Test: antimicrobial activity, MIC
# Format: cell-based
# Conditions: Nannizzia gypsea, IFO8231, Microsporum gypseum IFO 8231; read-out: MIC
row,Compound,MIC
1,"CCCCCCOc1ccccc1C(=COC)n1ccnc1 (single isomer, unassigned) [Compound 73]",3.12 µg/mL
2,"CCCCCOc1ccccc1C(=CSCC)n1ccnc1 (single isomer, unassigned) [Compound 34]",< 0.2 µg/mL

# System: Bacillus subtilis ATCC 6633
# Test: antimicrobial activity, MIC
# Format: cell-based
# Conditions: Bacillus subtilis, ATCC6633, Bacillus subtilis ATCC 6633; read-out: MIC
row,Compound,MIC
1,"CCCCCCOc1ccccc1C(=COC)n1ccnc1 (single isomer, unassigned) [Compound 73]",6.25 µg/mL
2,"CCCCCOc1ccccc1C(=CSCC)n1ccnc1 (single isomer, unassigned) [Compound 34]",3.12 µg/mL

# System: Saccharomyces ruxii 6507
# Test: antimicrobial activity, MIC
# Format: cell-based
# Conditions: Saccharomyces ruxii 6507; read-out: MIC
row,Compound,MIC
1,"CCCCCOc1ccccc1C(=CSCC)n1ccnc1 (single isomer, unassigned) [Compound 34]",< 0.2 µg/mL

# Same assay, conditions: Saccharomyces, 6507, Saccharomyces ruxii 6507
row,Compound,MIC
1,"CCCCCCOc1ccccc1C(=COC)n1ccnc1 (single isomer, unassigned) [Compound 73]",1.56 µg/mL

# System: Micrococcus lysodeixticus IFO 3333
# Test: antimicrobial activity, MIC
# Format: cell-based
# Conditions: Micrococcus, IFO3333, Micrococcus lysodeixticus IFO 3333; read-out: MIC
row,Compound,MIC
1,"CCCCCCOc1ccccc1C(=COC)n1ccnc1 (single isomer, unassigned) [Compound 73]",3.12 µg/mL
2,"CCCCCOc1ccccc1C(=CSCC)n1ccnc1 (single isomer, unassigned) [Compound 34]",0.39 µg/mL

# System: Saccharomyces cerevisiae ATCC 9763
# Test: antimicrobial activity, MIC
# Format: cell-based
# Conditions: Saccharomyces cerevisiae, ATCC9763, Saccharomyces cerevisiae ATCC 9763; read-out: MIC
row,Compound,MIC
1,"CCCCCCOc1ccccc1C(=COC)n1ccnc1 (single isomer, unassigned) [Compound 73]",50 µg/mL
2,"CCCCCOc1ccccc1C(=CSCC)n1ccnc1 (single isomer, unassigned) [Compound 34]",< 0.2 µg/mL

# System: Debaryomyces kloeckeri IFO 0015
# Test: antimicrobial activity, MIC
# Format: cell-based
# Conditions: IFO0015, read-out: MIC
row,Compound,MIC
1,"CCCCCCOc1ccccc1C(=COC)n1ccnc1 (single isomer, unassigned) [Compound 73]",3.12 µg/mL
2,"CCCCCOc1ccccc1C(=CSCC)n1ccnc1 (single isomer, unassigned) [Compound 34]",0.78 µg/mL

# System: Epidermophyton floccosum IFO 9045
# Test: antimicrobial activity, MIC
# Format: cell-based
# Conditions: Epidermophyton floccosum, IFO9045, Epidermophyton floccosum IFO 9045; read-out: MIC
row,Compound,MIC
1,"CCCCCCOc1ccccc1C(=COC)n1ccnc1 (single isomer, unassigned) [Compound 73]",6.25 µg/mL
2,"CCCCCOc1ccccc1C(=CSCC)n1ccnc1 (single isomer, unassigned) [Compound 34]",1.56 µg/mL

# System: Microsporum cookei IFO 8303
# Test: antimicrobial activity, MIC
# Format: cell-based
# Conditions: Paraphyton cookei, IFO8303, Microsporum cookei IFO 8303; read-out: MIC
row,Compound,MIC
1,"CCCCCCOc1ccccc1C(=COC)n1ccnc1 (single isomer, unassigned) [Compound 73]",6.25 µg/mL
2,"CCCCCOc1ccccc1C(=CSCC)n1ccnc1 (single isomer, unassigned) [Compound 34]",1.56 µg/mL

# System: Candida albicans Yu-1200
# Test: antimicrobial activity, MIC
# Format: cell-based
# Conditions: YU1200, read-out: MIC
row,Compound,MIC
1,"CCCCCCOc1ccccc1C(=COC)n1ccnc1 (single isomer, unassigned) [Compound 73]",50 µg/mL
2,"CCCCCOc1ccccc1C(=CSCC)n1ccnc1 (single isomer, unassigned) [Compound 34]",50 µg/mL

# System: Aspergillus niger ATCC 9642
# Test: antimicrobial activity, MIC
# Format: cell-based
# Conditions: Aspergillus niger, ATCC9642, Aspergillus niger ATCC 9642; read-out: MIC
row,Compound,MIC
1,"CCCCCCOc1ccccc1C(=COC)n1ccnc1 (single isomer, unassigned) [Compound 73]",12.5 µg/mL
2,"CCCCCOc1ccccc1C(=CSCC)n1ccnc1 (single isomer, unassigned) [Compound 34]",0.78 µg/mL

# System: Staphylococcus epidermidis ATCC 12228
# Test: antimicrobial activity, MIC
# Format: cell-based
# Conditions: Staphylococcus epidermidis, ATCC12228, Staphylococcus epidermidis ATCC 12228; read-out: MIC
row,Compound,MIC
1,"CCCCCCOc1ccccc1C(=COC)n1ccnc1 (single isomer, unassigned) [Compound 73]",6.25 µg/mL
2,"CCCCCOc1ccccc1C(=CSCC)n1ccnc1 (single isomer, unassigned) [Compound 34]",3.12 µg/mL

# System: Trichophyton mentagrophytes QM 248
# Test: antimicrobial activity, MIC
# Format: cell-based
# Conditions: Trichophyton mentagrophytes, QM248, Trichophyton mentagrophytes QM 248; read-out: MIC
row,Compound,MIC
1,"CCCCCCOc1ccccc1C(=COC)n1ccnc1 (single isomer, unassigned) [Compound 73]",3.12 µg/mL
2,"CCCCCOc1ccccc1C(=CSCC)n1ccnc1 (single isomer, unassigned) [Compound 34]",< 0.2 µg/mL

# System: Streptococcus faecalis IFO 12964
# Test: antimicrobial activity, MIC
# Format: cell-based
# Conditions: Enterococcus faecalis, IFO12964, Streptococcus faecalis IFO 12964; read-out: MIC
row,Compound,MIC
1,"CCCCCCOc1ccccc1C(=COC)n1ccnc1 (single isomer, unassigned) [Compound 73]",12.5 µg/mL
2,"CCCCCOc1ccccc1C(=CSCC)n1ccnc1 (single isomer, unassigned) [Compound 34]",12.5 µg/mL

# System: Microsporum audounii IFO 6074
# Test: antimicrobial activity, MIC
# Format: cell-based
# Conditions: Microsporum, IFO6074, Microsporum audounii IFO 6074; read-out: MIC
row,Compound,MIC
1,"CCCCCCOc1ccccc1C(=COC)n1ccnc1 (single isomer, unassigned) [Compound 73]",0.78 µg/mL
2,"CCCCCOc1ccccc1C(=CSCC)n1ccnc1 (single isomer, unassigned) [Compound 34]",< 0.2 µg/mL

# System: Aspergillus oryzae IMF 4014
# Test: antimicrobial activity, MIC
# Format: cell-based
# Conditions: Aspergillus oryzae, IMF4014, Aspergillus oryzae IMF 4014; read-out: MIC
row,Compound,MIC
1,"CCCCCCOc1ccccc1C(=COC)n1ccnc1 (single isomer, unassigned) [Compound 73]",6.25 µg/mL
2,"CCCCCOc1ccccc1C(=CSCC)n1ccnc1 (single isomer, unassigned) [Compound 34]",1.56 µg/mL

# System: Gibberella fujikuroi IAM 8046
# Test: antimicrobial activity, MIC
# Format: cell-based
# Conditions: Fusarium fujikuroi, IAM8046, Gibberella fujikuroi IAM 8046; read-out: MIC
row,Compound,MIC
1,"CCCCCCOc1ccccc1C(=COC)n1ccnc1 (single isomer, unassigned) [Compound 73]",6.25 µg/mL
2,"CCCCCOc1ccccc1C(=CSCC)n1ccnc1 (single isomer, unassigned) [Compound 34]",< 0.2 µg/mL

# System: Trichophyton rubrum NHL J
# Test: antimicrobial activity, MIC
# Format: cell-based
# Conditions: Trichophyton rubrum
row,Compound,MIC
1,"CCCCCCOc1ccccc1C(=COC)n1ccnc1 (single isomer, unassigned) [Compound 73]",1.56 µg/mL

# Same assay, conditions: Trichophyton rubrum, Trichophyton rubrum NHL J; read-out: MIC
row,Compound,MIC
1,"CCCCCOc1ccccc1C(=CSCC)n1ccnc1 (single isomer, unassigned) [Compound 34]",< 0.2 µg/mL

# System: Trichophyton mentagrophytes IFO 5812
# Test: antimicrobial activity, MIC
# Format: cell-based
# Conditions: Trichophyton mentagrophytes IFO 5812
row,Compound,MIC
1,"CCCCCCOc1ccccc1C(=COC)n1ccnc1 (single isomer, unassigned) [Compound 73]",1.56 µg/mL

# Same assay, conditions: Trichophyton mentagrophytes, IFO5812, Trichophyton mentagrophytes IFO 5812; read-out: MIC
row,Compound,MIC
1,"CCCCCOc1ccccc1C(=CSCC)n1ccnc1 (single isomer, unassigned) [Compound 34]",< 0.2 µg/mL
